Tested on: T1, tubulin
T1 construct: gene TUBB2B
Experiment: turbidimetric tubulin polymerization assay ([…] nm)
Type: biochemical
Conditions: tubulin 10 µM

Structure (SMILES)	IC50 [µM]
COc1ccc(OC)c(/C=C/C(=O)c2ccc(OC)cc2OC)c1 [compound 1, hit 1]	3.7 ± 0.5
